Source: patent US12391737B2, “Soluble NPY2 receptor agonists” (Boehringer Ingelheim International GmbH, priority 2020, dated 2025)
*1 amine or outer side, *2 acyl side, *3 side chain or, on linkers, in order; H or OH if unused. Where a SMILES comes first, the peptide text is derived from it. Side-chain parts run from the residue outwards. The star is where a group is joined. C18 diacid = O=C(O)CCCCCCCCCCCCCCCCC(=O)*; γGlu = O=C(O)[C@H](CCC(=O)[*:2])N[*:1]; Isovaleryl = CC(C)CC(=O)*; Ahx = NCCCCCC(=O)O

Experiments:
[1] = biological target: T1, Human Neuropeptide Y2 Receptor (Homo sapiens, UniProt P49146); assay: Radioligand binding competition assay (RLB); details: Table 3, 125I-PYY(1-36) competition; read-out: Ki
T1 construct: purchased CHEMICON HTS066M
T1 sequence (P49146 1-381): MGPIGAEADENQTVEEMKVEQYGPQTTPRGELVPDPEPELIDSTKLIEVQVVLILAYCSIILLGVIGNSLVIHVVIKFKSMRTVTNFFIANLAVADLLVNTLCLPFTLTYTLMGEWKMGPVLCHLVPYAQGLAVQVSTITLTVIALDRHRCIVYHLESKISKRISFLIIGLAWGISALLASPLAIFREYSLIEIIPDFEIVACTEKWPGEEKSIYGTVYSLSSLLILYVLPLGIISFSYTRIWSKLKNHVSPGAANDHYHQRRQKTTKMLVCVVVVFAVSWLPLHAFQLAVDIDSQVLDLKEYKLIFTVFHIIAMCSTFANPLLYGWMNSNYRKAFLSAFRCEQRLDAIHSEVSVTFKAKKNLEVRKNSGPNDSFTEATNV
Summary of the method: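 Filtration binding assay on human Y2 receptor membrane preparation, 0.5 μg protein per well, in 50 mM HEPES pH 7.4 containing 5 mM MgCl2, 1 mM CaCl2 and 0.2% ovalbumin. Plates shake 2 h at room temperature before harvest and scintillation counting.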

[2] = biological target: T2, human NPY5 receptor (hY5R) (Homo sapiens, UniProt Q15761); assay: HTRF cAMP Gi assay, hY5R
T2 sequence (Q15761 1-445): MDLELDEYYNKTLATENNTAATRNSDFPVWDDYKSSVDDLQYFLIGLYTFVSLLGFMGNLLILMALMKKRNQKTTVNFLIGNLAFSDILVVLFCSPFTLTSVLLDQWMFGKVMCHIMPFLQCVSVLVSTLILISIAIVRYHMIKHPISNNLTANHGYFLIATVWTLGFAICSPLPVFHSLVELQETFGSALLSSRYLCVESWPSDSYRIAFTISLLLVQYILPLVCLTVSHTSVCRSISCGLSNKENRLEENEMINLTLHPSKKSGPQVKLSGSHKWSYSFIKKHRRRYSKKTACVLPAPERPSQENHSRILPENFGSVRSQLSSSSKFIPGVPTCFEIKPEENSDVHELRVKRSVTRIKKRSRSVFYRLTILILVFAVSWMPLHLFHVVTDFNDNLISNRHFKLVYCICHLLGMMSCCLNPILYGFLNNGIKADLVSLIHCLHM
Procedure: Briefly, the production of intracellular cAMP will generate a competition between unlabeled cAMP and exogenously added d2-cAMP for anti-cAMP antibodies conjugated to cryptate. CHO-K1 cells stably expressing the human NPY1, NPY2, NPY4 and NPY5 receptors were used with the cells brought to life from a frozen stock immediately before assay performance. 2000 cells per well were applied for all four NPY receptor subtype assays. A 384-well format was used applying a total volume of 20 μl using 5 μl cells, 2.5 μl peptide agonist, 2.5 μl forskolin and 5 μl of each of the fluorophores. […] Concentration-response evaluation of compounds was performed with 11 concentrations of agonist peptides (covering 3 decades). EC50 values were calculated by nonlinear regression using sigmoid concentration-response with variable slope.

[3] = Solubility determination; details: for Sol6: pH 6; for Sol7: pH 7
Summary of the method: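 First, TFA-salt peptide was added to 0.1 M sodium diphosphate (pH 6.4 or 7.0) to 10 mg/ml and shaken 2 h at room temperature. Next, insoluble material was filtered off. Finally, filtrate and control, each 1 mg/ml in 50% acetonitrile, were compared by reversed-phase chromatography.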

Row | SMILES | Ki [1] [nM] | EC50 [2] [nM] | Sol6 [3] [mg/mL] | Sol7 [3] [mg/mL]
1 | CC(C)CC(=O)N[C@@H](C)C(=O)N1CCC[C@H]1C(=O)N[C@@H](CCC(=O)O)C(=O)N[C@@H](CCCCNC(=O)CCCCCNC(=O)CC[C@H](NC(=O)CCCCCCCCCCCCCCCCC(=O)O)C(=O)O)C(=O)N1CCC[C@H]1C(=O)N[C@@H](CCC(=O)O)C(=O)N[C@@H](CCC(=O)O)C(=O)N[C@@H](CC(=O)O)C(=O)N[C@@H](C)C(=O)N[C@@H](CO)C(=O)N1CCC[C@H]1C(=O)N[C@@H](CCC(=O)O)C(=O)N[C@@H](CCC(=O)O)C(=O)N[C@@H](CC(C)C)C(=O)N[C@@H](CCC(N)=O)C(=O)N[C@@H](CCCNC(=N)N)C(=O)N[C@@H](Cc1ccc(O)cc1)C(=O)N[C@@H](Cc1ccc(O)cc1)C(=O)N[C@H](C(=O)N[C@@H](CO)C(=O)N[C@@H](CC(C)C)C(=O)N[C@@H](CCCNC(=N)N)C(=O)N[C@@H](Cc1c[nH]cn1)C(=O)N[C@@H](Cc1ccc(O)cc1)C(=O)N[C@@H](Cc1ccc(O)cc1)C(=O)N[C@@H](CC(N)=O)C(=O)N[C@@H](Cc1c[nH]c2ccccc12)C(=O)N[C@@H](CC(C)C)C(=O)N[C@H](C(=O)N[C@@H](CCCNC(=N)N)C(=O)N[C@@H](CCC(N)=O)C(=O)N[C@@H](CCCNC(=N)N)C(=O)N[C@@H](Cc1ccc(O)cc1)C(N)=O)[C@@H](C)O)C(C)C [Compound 79, N{alpha-4}-(3-methylbutanoyl)-N{epsilon-7}-(6-[(4S)-4-carboxy-4-(17-carboxyheptadecanamido)butanamido]hexanoyl)-[4A,7K,9E,18Q,22V,28Y,30W,31L]-hPYY(4-36)] | 1.54 | > 5000 | 10.0 | 10.0
2 | CC(C)CC(=O)N[C@@H](C)C(=O)N1CCC[C@H]1C(=O)N[C@@H](CCC(=O)O)C(=O)N[C@@H](CCCCNC(=O)CCCCCNC(=O)CC[C@H](NC(=O)CCCCCCCCCCCCCCCCC(=O)O)C(=O)O)C(=O)N1CCC[C@H]1C(=O)N[C@@H](CCC(=O)O)C(=O)N[C@@H](CCC(=O)O)C(=O)N[C@@H](CC(=O)O)C(=O)N[C@@H](C)C(=O)N[C@@H](CCC(=O)O)C(=O)N1CCC[C@H]1C(=O)N[C@@H](CCC(=O)O)C(=O)N[C@@H](CCC(=O)O)C(=O)N[C@@H](CC(C)C)C(=O)N[C@@H](CCC(N)=O)C(=O)N[C@@H](CCCNC(=N)N)C(=O)N[C@@H](Cc1ccc(O)cc1)C(=O)N[C@@H](Cc1ccc(O)cc1)C(=O)N[C@H](C(=O)N[C@@H](CO)C(=O)N[C@@H](CC(C)C)C(=O)N[C@@H](CCCNC(=N)N)C(=O)N[C@@H](Cc1c[nH]cn1)C(=O)N[C@@H](Cc1ccc(O)cc1)C(=O)N[C@@H](Cc1ccc(O)cc1)C(=O)N[C@@H](Cc1c[nH]cn1)C(=O)N[C@@H](Cc1c[nH]c2ccccc12)C(=O)N[C@@H](CC(C)C)C(=O)N[C@H](C(=O)N[C@@H](CCCNC(=N)N)C(=O)N[C@@H](CCC(N)=O)C(=O)N[C@@H](CCCNC(=N)N)C(=O)N[C@@H](Cc1ccc(O)cc1)C(N)=O)[C@@H](C)O)[C@@H](C)O [Compound 91, N{alpha-4}-(3-methylbutanoyl)-N{epsilon-7}-(6-[(4S)-4-carboxy-4-(17-carboxyheptadecanamido)butanamido]hexanoyl)-[4A,7K,9E,13E,18Q,22T,28Y,29H,30W,31L]-hPYY(4-36)] (Isovaleryl-APEK([Ahx-γGlu-C18 diacid])PEEDAEPEELQRYYTSLRHYYHWLTRQRY-NH2) | 4.64 | ≥ 5000 | 8.9 | 9.4
3 | CC[C@H](C)[C@H](NC(=O)[C@H](CCC(=O)O)NC(=O)[C@H](CCC(=O)O)NC(=O)[C@@H]1CCCN1C(=O)[C@H](CO)NC(=O)[C@H](C)NC(=O)[C@H](CC(=O)O)NC(=O)[C@H](C)NC(=O)[C@H](CCC(=O)O)NC(=O)[C@@H]1CCCN1C(=O)[C@H](CCCCNC(=O)CCCCCNC(=O)CC[C@H](NC(=O)CCCCCCCCCCCCCCCCC(=O)O)C(=O)O)NC(=O)[C@H](CCC(=O)O)NC(=O)[C@@H]1CCCN1C(=O)[C@H](C)NC(=O)CC(C)C)C(=O)N[C@@H](CCC(N)=O)C(=O)N[C@@H](CCCNC(=N)N)C(=O)N[C@@H](Cc1ccc(O)cc1)C(=O)N[C@@H](Cc1ccc(O)cc1)C(=O)N[C@H](C(=O)N[C@@H](CO)C(=O)N[C@@H](CC(C)C)C(=O)N[C@@H](CCCNC(=N)N)C(=O)N[C@@H](Cc1c[nH]cn1)C(=O)N[C@@H](Cc1ccc(O)cc1)C(=O)N[C@@H](Cc1ccc(O)cc1)C(=O)N[C@@H](CC(N)=O)C(=O)N[C@@H](Cc1c[nH]c2ccccc12)C(=O)N[C@@H](CC(C)C)C(=O)N[C@H](C(=O)N[C@@H](CCCNC(=N)N)C(=O)N[C@@H](CCC(N)=O)C(=O)N[C@@H](CCCNC(=N)N)C(=O)N[C@@H](Cc1ccc(O)cc1)C(N)=O)[C@@H](C)O)C(C)C [Compound 140, N{alpha-4}-(3-methylbutanoyl)-N{epsilon-7}-(6-[(4S)-4-carboxy-4-(17-carboxyheptadecanamido)butanamido]hexanoyl)-[4A,7K,9E,10A,17I,18Q,22V,28Y,30W,31L]-hPYY(4-36)] | 1.41 | > 5000 | 9.9 | 9.3
4 | CC(C)CC(=O)N[C@@H](C)C(=O)N1CCC[C@H]1C(=O)N[C@@H](C)C(=O)N[C@@H](CCCCNC(=O)CCCCCNC(=O)CC[C@H](NC(=O)CCCCCCCCCCCCCCCCC(=O)O)C(=O)O)C(=O)N1CCC[C@H]1C(=O)N[C@@H](CCC(=O)O)C(=O)N[C@@H](CCC(=O)O)C(=O)N[C@@H](CC(=O)O)C(=O)N[C@@H](C)C(=O)N[C@@H](CO)C(=O)N1CCC[C@H]1C(=O)N[C@@H](CCC(=O)O)C(=O)N[C@@H](CCC(=O)O)C(=O)N[C@@H](CC(C)C)C(=O)N[C@@H](CCC(N)=O)C(=O)N[C@@H](CCCNC(=N)N)C(=O)N[C@@H](Cc1ccc(O)cc1)C(=O)N[C@@H](Cc1ccc(O)cc1)C(=O)N[C@H](C(=O)N[C@@H](CO)C(=O)N[C@@H](CC(C)C)C(=O)N[C@@H](CCCNC(=N)N)C(=O)N[C@@H](Cc1c[nH]cn1)C(=O)N[C@@H](Cc1ccc(O)cc1)C(=O)N[C@@H](Cc1ccc(O)cc1)C(=O)N[C@@H](CC(N)=O)C(=O)N[C@@H](Cc1c[nH]c2ccccc12)C(=O)N[C@@H](CC(C)C)C(=O)N[C@H](C(=O)N[C@@H](CCCNC(=N)N)C(=O)N[C@@H](CCC(N)=O)C(=O)N[C@@H](CCCNC(=N)N)C(=O)N[C@@H](Cc1ccc(O)cc1)C(N)=O)[C@@H](C)O)C(C)C [Compound 145, N{alpha-4}-(3-methylbutanoyl)-N{epsilon-7}-(6-[(4S)-4-carboxy-4-(17-carboxyheptadecanamido)butanamido]hexanoyl)-[4A,6A,7K,9E,18Q,22V,28Y,30W,31L]-hPYY(4-36)] | 5.29 | > 5000 | 7.2 | 9.0
5 | CC[C@H](C)[C@H](NC(=O)[C@H](CCC(=O)O)NC(=O)[C@H](CCC(=O)O)NC(=O)[C@@H]1CCCN1C(=O)[C@H](CO)NC(=O)[C@H](C)NC(=O)[C@H](CC(=O)O)NC(=O)[C@H](CCC(=O)O)NC(=O)[C@H](CCC(=O)O)NC(=O)[C@@H]1CCCN1C(=O)[C@H](CCCCNC(=O)CCCCCNC(=O)CC[C@H](NC(=O)CCCCCCCCCCCCCCCCC(=O)O)C(=O)O)NC(=O)[C@H](CCC(=O)O)NC(=O)[C@@H]1CCCN1C(=O)[C@H](C)NC(=O)CC(C)C)C(=O)N[C@@H](CCC(N)=O)C(=O)N[C@@H](CCCNC(=N)N)C(=O)N[C@@H](Cc1ccc(O)cc1)C(=O)N[C@@H](Cc1ccc(O)cc1)C(=O)N[C@H](C(=O)N[C@@H](CO)C(=O)N[C@@H](CC(C)C)C(=O)N[C@@H](CCCNC(=N)N)C(=O)N[C@@H](Cc1c[nH]cn1)C(=O)N[C@@H](Cc1ccc(O)cc1)C(=O)N[C@@H](Cc1ccc(O)cc1)C(=O)N[C@@H](CC(N)=O)C(=O)N[C@@H](Cc1c[nH]c2ccccc12)C(=O)N[C@@H](CC(C)C)C(=O)N[C@H](C(=O)N[C@@H](CCCNC(=N)N)C(=O)N[C@@H](CCC(N)=O)C(=O)N[C@@H](CCCNC(=N)N)C(=O)N[C@@H](Cc1ccc(O)cc1)C(N)=O)[C@@H](C)O)C(C)C [Compound 147, N{alpha-4}-(3-methylbutanoyl)-N{epsilon-7}-(6-[(4S)-4-carboxy-4-(17-carboxyheptadecanamido)butanamido]hexanoyl)-[4A,7K,9E,17I,18Q,22V,28Y,30W,31L]-hPYY(4-36)] | 5.04 | > 5000 | 9.4 | 9.2
